Laboratory results taken from ChEMBL document CHEMBL1201862, “PubChem BioAssay data set” (2004).
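1) Cells in 96-well plates. 2) Compound, 48 h, 5 concentrations. 3) Linear interpolation between surrounding doses. 4) Unreached endpoint = highest concentration. At the GI50, growth is halved.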 Calls of active or inactive are those of the source. Rule as the data show it: active = GI50 up to about 1.1 µM and inactive = higher.

Tests used:
Experiment in all cases: inhibition of tumour cell growth, NCI panel, 48 h
[1] = test system: UO-31
[2] = test system: SK-MEL-2
[3] = test system: CAKI-1
[4] = test system: HCT-15
[5] = test system: KM12
[6] = test system: HCC 2998
[7] = test system: LOX IMVI
[8] = test system: SR
[9] = test system: COLO 205
[10] = test system: 786-0
[11] = test system: NCI-H23
[12] = test system: SK-MEL-5
[13] = test system: XF498
[14] = test system: HCT-116
[15] = test system: NCI-H226
[16] = test system: M19-MEL
[17] = test system: LXFL 529
[18] = test system: RXF 393
[19] = test system: DMS-273
[20] = test system: OVCAR-5
[21] = test system: SF-539
[22] = test system: SF-268
[23] = test system: HL-60
[24] = test system: SF-295
[25] = test system: OVCAR-8
[26] = test system: ACHN
[27] = test system: M14
[28] = test system: UACC-257
[29] = test system: DLD-1
[30] = test system: MOLT-4
[31] = test system: SNB-75
[32] = test system: EKVX
[33] = test system: K562
[34] = test system: HOP-62
[35] = test system: SW-620
[36] = test system: IGROV-1
[37] = test system: OVCAR-4
[38] = test system: DMS-114
[39] = test system: SNB-78
[40] = test system: UACC-62
[41] = test system: SN12C
[42] = test system: OVCAR-3
[43] = test system: A498
[44] = test system: Malme-3M
[45] = test system: CCRF-CEM
[46] = test system: RPMI-8226
[47] = test system: KM-20L2
[48] = test system: HOP-18
[49] = test system: HT-29
[50] = test system: A549
[51] = test system: NCI-H460
[52] = test system: SK-MEL-28
[53] = test system: U-251
[54] = test system: TK-10
[55] = test system: NCI-H522
[56] = test system: SNB-19
[57] = test system: HOP-92
[58] = test system: SK-OV-3

SMILES: COc1ccc(-c2cc(C(=O)Nc3cc(C(F)(F)F)cc(C(F)(F)F)c3)c3ccccc3n2)cc1
- GI50 [1]: 24.5 µM (inactive)
- GI50 [2]: 12.9 µM (inactive)
- GI50 [3]: 11.3 µM (inactive)
- GI50 [4]: 11.4 µM
- GI50 [5]: 13.2 µM (inactive)
- GI50 [6]: 11.4 µM (inactive)
- GI50 [7]: 13.4 µM (inactive)
- GI50 [8]: 4.29 µM (inactive)
- GI50 [9]: 13.4 µM (inactive)
- GI50 [10]: 11.7 µM (inactive)
- GI50 [11]: 5.9 µM (inactive)
- GI50 [12]: 18 µM (inactive)
- GI50 [13]: 7.31 µM (inactive)
- GI50 [14]: 6.19 µM (inactive)
- GI50 [15]: 17.1 µM (inactive)
- GI50 [16]: 17.2 µM (inactive)
- GI50 [17]: 8.83 µM (inactive)
- GI50 [18]: 5.12 µM (inactive)
- GI50 [19]: 8.36 µM (inactive)
- GI50 [20]: 24.7 µM (inactive)
- GI50 [21]: 12.3 µM (inactive)
- GI50 [22]: 14.4 µM (inactive)
- GI50 [23]: 21.3 µM (inactive)
- GI50 [24]: 10.3 µM (inactive)
- GI50 [25]: 4.27 µM (inactive)
- GI50 [26]: 12.5 µM (inactive)
- GI50 [27]: 10.2 µM (inactive)
- GI50 [28]: 17.6 µM (inactive)
- GI50 [29]: 11.4 µM (inactive)
- GI50 [30]: 14.2 µM (inactive)
- GI50 [31]: 13.7 µM (inactive)
- GI50 [32]: 9.06 µM (inactive)
- GI50 [33]: 4.89 µM (inactive)
- GI50 [34]: 12.8 µM (inactive)
- GI50 [35]: 7.94 µM (inactive)
- GI50 [36]: 12.6 µM (inactive)
- GI50 [37]: 8.3 µM (inactive)
- GI50 [38]: 6.56 µM (inactive)
- GI50 [39]: 19.5 µM (inactive)
- GI50 [40]: 21.6 µM (inactive)
- GI50 [41]: 10.6 µM (inactive)
- GI50 [42]: 4.93 µM (inactive)
- GI50 [43]: 15.1 µM (inactive)
- GI50 [44]: 17.9 µM (inactive)
- GI50 [45]: 7.6 µM (inactive)
- GI50 [46]: 6.27 µM (inactive)
- GI50 [47]: 7.08 µM (inactive)
- GI50 [48]: 17.7 µM (inactive)
- GI50 [49]: 9.06 µM (inactive)
- GI50 [50]: 4.71 µM (inactive)
- GI50 [51]: 5.42 µM (inactive)
- GI50 [52]: 27.7 µM (inactive)
- GI50 [53]: 4.28 µM (inactive)
- GI50 [54]: 13.9 µM (inactive)

SMILES: CC12CC(=O)OC(Cc3ccccc31)O2 (configuration not stated)
- GI50 [55]: > 100 µM (inactive)
- GI50 [1]: > 100 µM (inactive)
- GI50 [2]: > 100 µM (inactive)
- GI50 [5]: > 100 µM (inactive)
- GI50 [6]: > 100 µM (inactive)
- GI50 [7]: > 100 µM (inactive)
- GI50 [8]: > 100 µM (inactive)
- GI50 [9]: > 100 µM (inactive)
- GI50 [10]: > 100 µM (inactive)
- GI50 [11]: > 100 µM (inactive)
- GI50 [13]: > 100 µM (inactive)
- GI50 [14]: > 100 µM (inactive)
- GI50 [15]: > 100 µM (inactive)
- GI50 [16]: > 100 µM (inactive)
- GI50 [17]: > 100 µM (inactive)
- GI50 [18]: > 100 µM (inactive)
- GI50 [19]: > 100 µM (inactive)
- GI50 [21]: > 100 µM (inactive)
- GI50 [22]: > 100 µM (inactive)
- GI50 [23]: > 100 µM (inactive)
- GI50 [24]: > 100 µM (inactive)
- GI50 [25]: > 100 µM (inactive)
- GI50 [26]: > 100 µM (inactive)
- GI50 [56]: > 100 µM (inactive)
- GI50 [27]: > 100 µM (inactive)
- GI50 [28]: > 100 µM (inactive)
- GI50 [29]: > 100 µM (inactive)
- GI50 [30]: > 100 µM (inactive)
- GI50 [31]: > 100 µM (inactive)
- GI50 [32]: > 100 µM (inactive)
- GI50 [33]: > 100 µM (inactive)
- GI50 [34]: > 100 µM (inactive)
- GI50 [35]: > 100 µM (inactive)
- GI50 [57]: > 100 µM (inactive)
- GI50 [36]: > 100 µM (inactive)
- GI50 [38]: > 100 µM (inactive)
- GI50 [39]: > 100 µM (inactive)
- GI50 [40]: > 100 µM (inactive)
- GI50 [41]: > 100 µM (inactive)
- GI50 [42]: > 100 µM (inactive)
- GI50 [44]: > 100 µM (inactive)
- GI50 [45]: > 100 µM (inactive)
- GI50 [46]: > 100 µM (inactive)
- GI50 [47]: > 100 µM (inactive)
- GI50 [48]: > 100 µM (inactive)
- GI50 [49]: > 100 µM (inactive)
- GI50 [50]: > 100 µM (inactive)
- GI50 [51]: > 100 µM (inactive)
- GI50 [58]: > 100 µM (inactive)
- GI50 [52]: > 100 µM (inactive)
- GI50 [53]: > 100 µM (inactive)
- GI50 [54]: > 100 µM (inactive)

SMILES: COC(=O)[C@@]12OC[C@]34C([C@@H](O)C1O)[C@@]1(C)CC(=O)C(O)=C(C)C1C[C@H]3OC(=O)[C@H](OC(=O)CC(C)C(F)(F)F)[C@H]42 (some centres not stated)
- GI50 [55]: 0.00891 µM (active)
- GI50 [1]: 0.149 µM (active)
- GI50 [2]: 0.0771 µM (active)
- GI50 [3]: 0.056 µM (active)
- GI50 [4]: 0.166 µM
- GI50 [5]: 0.0324 µM (active)
- GI50 [6]: 0.0105 µM (active)
- GI50 [8]: 0.00429 µM (active)
- GI50 [9]: 0.101 µM (active)
- GI50 [10]: 0.0646 µM (active)
- GI50 [11]: 0.0126 µM (active)
- GI50 [12]: 0.0125 µM (active)
- GI50 [13]: 0.00522 µM (active)
- GI50 [14]: 0.0101 µM (active)
- GI50 [15]: 0.0108 µM (active)
- GI50 [16]: 0.0164 µM (active)
- GI50 [17]: 0.00731 µM (active)
- GI50 [18]: 0.0912 µM (active)
- GI50 [19]: 0.00693 µM (active)
- GI50 [20]: 0.146 µM (active)
- GI50 [21]: 0.0105 µM (active)
- GI50 [22]: 0.0869 µM (active)
- GI50 [23]: 0.00375 µM (active)
- GI50 [24]: 0.0445 µM (active)
- GI50 [25]: 0.0574 µM (active)
- GI50 [26]: 0.0231 µM (active)
- GI50 [56]: 0.00802 µM (active)
- GI50 [27]: 0.0347 µM (active)
- GI50 [28]: 0.0759 µM (active)
- GI50 [29]: 0.0877 µM (active)
- GI50 [30]: 0.0047 µM (active)
- GI50 [31]: 0.0445 µM (active)
- GI50 [32]: 0.128 µM (active)
- GI50 [33]: 0.0157 µM (active)
- GI50 [34]: 0.0989 µM (active)
- GI50 [35]: 0.022 µM (active)
- GI50 [57]: 0.00953 µM (active)
- GI50 [36]: 0.0168 µM (active)
- GI50 [37]: 0.0676 µM (active)
- GI50 [38]: 0.00948 µM (active)
- GI50 [39]: 0.206 µM (active)
- GI50 [40]: 0.00748 µM (active)
- GI50 [41]: 0.145 µM (active)
- GI50 [43]: 0.0214 µM (active)
- GI50 [44]: 0.0101 µM (active)
- GI50 [45]: 0.012 µM (active)
- GI50 [46]: 0.0116 µM (active)
- GI50 [47]: 0.0195 µM (active)
- GI50 [48]: 0.308 µM (active)
- GI50 [49]: 0.0133 µM (active)
- GI50 [50]: 0.0265 µM (active)
- GI50 [51]: 0.00542 µM (active)
- GI50 [58]: 0.0514 µM (active)
- GI50 [52]: 0.0121 µM (active)
- GI50 [53]: 0.0205 µM (active)
- GI50 [54]: 0.0662 µM (active)
